{"source": "patent US11197880B2", "about": "“Use of eriocitrin compositions for increasing GLP-1 levels” (INGREDIENTS BY NATURE, LLC, priority 2019, dated 2021)", "origin": "cited, not measured here", "test_system": "mice (C57BL/6J)", "key": {"[1]": {"settings": "mice (C57BL/6J), eriocitrin 140 mg/kg/day"}, "[2]": {"settings": "mice supplemented with eriocitrin, previous study"}}}
{"smiles": "C[C@@H]1O[C@@H](OC[C@H]2O[C@@H](Oc3cc(O)c4c(c3)O[C@H](c3ccc(O)c(O)c3)CC4=O)[C@H](O)[C@@H](O)[C@@H]2O)[C@H](O)[C@H](O)[C@H]1O", "note": "[Eriocitrin, eriodictyol 7-O-B-rutinoside]", "values": [{"measurement": "inflammatory markers (IL-6 and MCP-1)", "setting": "[1]", "result": "decreased inflammatory markers"}, {"measurement": "total antioxidant capacity", "setting": "[1]", "result": "increased total antioxidant capacity"}, {"measurement": "blood glucose", "setting": "[2]", "result": "reduced blood glucose"}, {"measurement": "insulin sensitivity", "setting": "[2]", "result": "improved insulin sensitivity"}]}
